In article PMC3230782 (Peptides, 2011):

Assays:
[1] = test system: estrogen-stimulated growth of the immature mouse uterus; experiment: immature mouse uterine growth inhibition assay; assay type: in vivo, mouse (Swiss Webster female); settings: for effect on the growth inhibition activity of AFPep when combined: combination with AFPep (Figure 2A, 2C); for dose-response behaviour of inhibition of estrogen-stimulated uterine growth: peptide alone, range of doses i.p. (Figure 1)
[2] = test system: estrogen-stimulated growth of the immature mouse uterus; settings: 30 (EMTPVNPG), 29 (AFPep); cited from earlier work
[3] = earlier work; 30 (EMTPVNPG); 29 (AFPep); cited from earlier work

Row | Substance | effect on the growth inhibition activity of AFPep when combined [1] | dose-response behaviour of inhibition of estrogen-stimulated uterine growth [1] | dose-response behaviour in anti-estrotrophic assay (earlier work) [2] | shelf life [3]
1 | cyclo[EKTOVGOGN] FS (lariat or depsi) | enhanced the activity of AFPep | no activity at any dose | – | –
2 | cyclo[EKTOVNOGN] FS (lariat or depsi) | decreased the activity of AFPep | little activity at any dose | – | –
3 | EMTPVNPG | – | – | biphasic dose-response curve | very short shelf life
